In article PMC4987650, “Structural Investigation of Park’s Nucleotide on Bacterial Translocase MraY: Discovery of Unexpected MraY Inhibitors” (Scientific Reports, 2016) one finds Relative activity and Kd data, which are given here for one compound.

The structures appear in SMILES notation.

One test deals with T1, MraYBS T53A mutant (Bacillus subtilis, UniProt Q03521, T53A).
T1 construct: MBP; made in house
Description: HPLC-based MraY functional assay, mutant MraY. In kind it is biochemical. Particulars: consumption of 6 in one-hour reaction. The method, then:
(§1) The purified MraY from Bacillus subtilis was prepared as described in our previous reports. For 5 and 7–10, the reaction mixture containing MraYBS (10 μg/mL), C55P (200 μM) in 40 μL reaction buffer (30 mM Tris, 10 mM MgCl2, 10 mM NaCl, 0.1 mM Tween-20, 2.5% DMSO, pH 8.0) were pre-incubated at 37 °C for 15 min. The reactions were initiated by the addition of Park’s nucleotide analogues (10 μM) and incubated at 37 °C for 1 h. The reaction mixtures were added by uridine (0.01 mg/mL) as the internal standard and heated to 100 °C to stop the transferring reaction. The samples were analyzed by RP-C18 HPLC with gradient elution of 0.25 M NH4HCO3(aq)/15% MeOH in water (100:0 to 0:100) at a flow rate of 1 mL/min over 45 min, and the peaks of substrates were monitored at UV 260 nm. […] The reaction mixtures were heated to 100 °C to stop the transferring reaction, and samples were analyzed by an anion-exchange column (SAX1, Supelco Co., 5 μm, 4.6 × 250 mm) with a linear gradient elution of NH4OAc (20 mM to 1 M in MeOH) at a flow rate of 1.0 mL/min over 30 min. The fluorescent substrates were monitored with λex 466 nm/λem 535 nm by fluorescence detector. […]

Another test addresses T2, MraYBS K102A mutant (Bacillus subtilis, UniProt Q03521, K102A).
T2 construct: MBP; made in house
Kind of test: HPLC-based MraY functional assay, mutant MraY. In kind it is biochemical. Particulars: consumption of 6 in one-hour reaction. The method, then: as §1

The target of the next test is T3, MraYBS (Bacillus subtilis, UniProt Q03521).
T3 construct: MBP; made in house
T3 sequence (Q03521 1-324): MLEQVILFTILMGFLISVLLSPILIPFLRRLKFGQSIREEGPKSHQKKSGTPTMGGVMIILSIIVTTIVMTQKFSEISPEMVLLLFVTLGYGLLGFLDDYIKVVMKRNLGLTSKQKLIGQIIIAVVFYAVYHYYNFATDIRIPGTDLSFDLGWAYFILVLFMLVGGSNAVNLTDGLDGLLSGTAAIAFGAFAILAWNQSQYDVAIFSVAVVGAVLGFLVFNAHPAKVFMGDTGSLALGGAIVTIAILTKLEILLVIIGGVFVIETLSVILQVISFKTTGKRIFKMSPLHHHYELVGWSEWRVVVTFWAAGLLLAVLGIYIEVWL
Description: Biolayer interferometry-based (BLI) binding assay. The method, then: MraYBS binding was measured in a biolayer interferometry-based binding assay on Octet Red96® instrument (ForteBio, Inc.). The biotinylation of MraYBS was performed with using EZ-Link® Sulfo-NHS-LC-LC-Biotin Kit (Thermo Fisher Scientific, Inc.). In general, MraYBS (1.7 mg/mL) in 50 μL reaction buffer (0.01 M HEPES pH 7.4, 0.15 M NaCl, 0.005% v/v Surfactant P20), was added by the sulfo-NHS-LC-LC-biotin reagent (1 mM, 1 μL). After incubating for 30 minutes at room temperature, the biotinylated-MraYBS was purified by a Zeba^TM Spin Desalting Columns, 7K MWCO (Thermo Fisher Scientific, Inc.), and the buffer was changed to the binding buffer (30 mM Tris, 10 mM MgCl2, 10 mM NaCl, 0.1 mM Tween-20, pH 8.0) during the purification. Comparing to the non-biotinylated-MraYBS, the biotinylated-MraYBS remains 62% activity measured by the HPLC-based MraY functional assay in 1 h reaction. The biotinylated MraYBS was then immobilized to Super Streptavidin (SSA) Octet tips (ForteBio, Inc.) for reaching a fixed signal of 3 nm. Before the assay starting, the MraYBS-labeled SSA sensors were pre-soaked in binding buffer for 30 min. The association of Park’s analogues with MraYBS were measured by incubating MraYBS-labeled SSA sensors in binding buffer containing various concentrations of samples in Octet Red system. The dissociation was monitored by moving the ligand biosenors from the analyte solution to binding buffer. The dissociation constants (KD) were obtained by nonlinear regression analysis using the specific binding model with the GraphPad Prism program (GraphPad Software, San Diego, CA).

Take `CC(=O)N[C@H]1[C@@H](OP(=O)(O)OP(=O)(O)OC[C@H]2O[C@@H](n3ccc(=O)[nH]c3=O)[C@H](O)[C@@H]2O)O[C@H](CO)[C@@H](O)[C@@H]1O[C@H](C)C(=O)N[C@@H](C)C(=O)N[C@H](CCC(=O)N[C@@H](CCCCNC(=O)CCCCCNc1ccc([N+](=O)[O-])c2nonc12)C(=O)N[C@H](C)C(=O)N[C@H](C)C(=O)O)C(=O)O` [Compound 6, NBD-Park’s nucleotide]: the Relative activity was 18% on MraYBS T53A mutant and 33% on MraYBS K102A mutant. Moreover, binding at MraYBS was put at a Kd of 127 µM.
